Laboratory results taken from patent publication US10517867B2, “Posaconazole derivative, pharmaceutical composition and use thereof” (priority 2016, dated 2019).
Where two headings read alike, the source gives them in different places.

Key:
[1] = Determination of solubility in deionized water (HPLC, external standard); conditions: 25 °C, water, thermodynamic from solid
[2] = Pharmacokinetics after single intravenous administration to rats; assay type: in vivo, SD rats; conditions: posaconazole in saline solution as a control, tail vein
Protocol: Administration amount: 2.5 mg/kg (calculated as posaconazole)
Administration volume: 2.5 ml/kg
Drug concentration: 1 mg/mL
Administration vehicle: normal saline
Administration route: tail vein injection
Experimental animals: SD rats, SPF grade, weighing 180-220 g, equal amount of male and female. Rats were randomly divided into groups of 6 with 3 males and 3 females.
Experimental protocol: blood samples were collected at different time points after tail vein administration and plasma posaconazole concentrations were measured.

[3] = In vitro metabolic stability in human plasma; assay type: in vitro ADME; conditions: human, plasma, 37° C., 10 μM compound, read-out: Human plasma T1/2
Summary of the method: (§1)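 Human or rat plasma, preincubated 5 min at 37 °C, or intestinal S9 at 37 °C, spiked from 1 mM stock; triplicates sampled at 1, 2, 5, 15 and 30 min into cold internal standard. HPLC quantitation; half-life by non-compartmental analysis.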

[4] = In vitro metabolic stability in rat plasma; assay type: in vitro ADME; conditions: rat, plasma, 37° C., 10 μM compound, read-out: Rat plasma T1/2
Summary of the method: as §1

[5] = In vitro metabolic stability in human intestine S9; assay type: in vitro ADME; conditions: human; 37° C., 10 μM compound, 1 mg/mL S9, NADPH regeneration system; read-out: Human intestine S9 T1/2
Summary of the method: as §1

[6] = test system: Candida albicans ATCC10231; assay: Systemic fungal infection in mice, intragastric administration; assay type: in vivo, ICR mice; conditions: Candida albicans, ATCC10231, po
physchem = conditions: 25 °C, water, thermodynamic from solid
[7] = In vitro metabolic stability in rat intestine S9; assay type: in vitro ADME; conditions: rat, pH 7.4; 37° C., 10 μM compound, 1 mg/mL S9, NADPH regeneration system; read-out: Rat intestine S9 T1/2
Summary of the method: as §1

| solubility at 30 min [1] | plasma posaconazole detection [2] | Compound | half-life at 10 µM [3] | half-life at 10 µM [4] | half-life at 10 µM [5] | responders at 20 mg/kg ([6]; 24 h, read-out: survival rate of mice, day 1, 20 mg/kg intragastric once daily for 5 days, day 1) | responders at 20 mg/kg ([6]; 48 h, read-out: survival rate of mice, day 2, 20 mg/kg intragastric once daily for 5 days, day 2) | responders at 20 mg/kg ([6]; 72 h, read-out: survival rate of mice, day 3, 20 mg/kg intragastric once daily for 5 days, day 3) | responders at 20 mg/kg ([6]; 96 h, read-out: survival rate of mice, day 4, 20 mg/kg intragastric once daily for 5 days, day 4) | responders at 20 mg/kg ([6]; 120 h, read-out: survival rate of mice, day 5, 20 mg/kg intragastric once daily for 5 days, day 5) | responders at 20 mg/kg ([6]; 144 h, read-out: survival rate of mice, day 6, 20 mg/kg intragastric once daily for 5 days, day 6) | responders at 20 mg/kg ([6]; 168 h, read-out: survival rate of mice, day 7, 20 mg/kg intragastric once daily for 5 days, day 7) | Solubility (physchem) | half-life at 10 µM [7] |
| --- | --- | --- | --- | --- | --- | --- | --- | --- | --- | --- | --- | --- | --- | --- |
| < 1 mg/mL | not detected | CC[C@@H]([C@H](C)O)n1ncn(-c2ccc(N3CCN(c4ccc(OC[C@@H]5CO[C@@](Cn6cncn6)(c6ccc(F)cc6F)C5)cc4)CC3)cc2)c1=O [Posaconazole, posaconazole] | – | – | – | – | – | – | – | – | – | – | – | – |
| – | – | CC[C@@H](C(C)OC(=O)OC(C)OC(=O)CCOP(=O)([O-])[O-])n1ncn(-c2ccc(N3CCN(c4ccc(OC[C@@H]5CO[C@@](Cn6cncn6)(c6ccc(F)cc6F)C5)cc4)CC3)cc2)c1=O.[Na+].[Na+] (some centres unmarked) [ST0066] | 11.3 ± 2.27 min | 12.6 ± 4.54 min | 40.4 ± 5.21 min | 80% | 80% | 70% | 70% | 70% | 60% | 60% | > 50 mg/mL | 36.6 ± 8.66 min |
